“Also recorded” adds a separate entry of the source. *1 amine or outer side, *2 acyl side, *3 side chain or, on linkers, in order; H or OH if unused. Where a SMILES comes first, the peptide text is derived from it. Side-chain parts run from the residue outwards. [ ]: non-standard residue; d: D form. The star is where a group is joined. C20 diacid = O=C(O)CCCCCCCCCCCCCCCCCCC(=O)*; γGlu = O=C(O)[C@H](CCC(=O)[*:2])N[*:1]; εLys = N[C@@H](CCCCN[*:1])C(=O)[*:2]; AEEA = NCCOCCOCC(=O)O; Aib = CC(C)(N)C(=O)O
Columns and labels:
[1] = IPGTT (intraperitoneal glucose tolerance test) in DIO mice; format: in vivo, C57BL/6J male mice; conditions: for iAUC, IPGTT (min*mg/dL) Day 14: i.p. glucose 2 g/kg, baseline subtracted AUC
Procedure: (§1) The purpose of this example is to assess the in vivo effect of selected triple agonists on pharmacodynamic parameters in diet-induced obese (DIO) mice. The animals were treated once daily via subcutaneous injection with a liquid formulation of the triple agonist to be tested to assess effects on body weight, foot intake, and glucose tolerance.
(§2) C57BL/6J male mice were purchased from Jackson Laboratories at approximately 8 weeks of age. Mice were group housed and fed a high-fat, high-sugar diet from Research Diets (D12331). Mice were maintained on this diet for 12 weeks prior to initializing the pharmacology studies. Mice exceeding a measured body weight of 50 grams were considered diet-induced obese (DIO) and included in pharmacology studies. Mice were exposed to a controlled 12 h:12 h light:dark cycle at ambient room temperature (22° C.) with ab libitum access to food and water. Studies were approved by and performed according to the guidelines of the Institutional Animal Care and Use Committee of the University of Cincinnati.
(§3) All compounds in the study were formulated in the following buffer: 50 mM phosphate; 70 mM sodium chloride; 0.05% Tween-80, pH 7.4. Dosing solutions were formulated in glass vials and stored at 2-8° C. Dosing solutions were brought to room temperature before dosing and returned to 2-8° C. after dosing.
(§4) DIO mice were distributed into groups (n=8 per group) such that statistical variations in the mean and standard deviations of fat mass and body weight were minimized between groups. The animals were grouped to receive treatment as follows: Vehicle or GLP-1/GIP/Gcg receptor triple agonists as described herein, where vehicle is 50 mM phosphate, 70 mM sodium chloride; 0.05% (v/v) Tween-80, pH 7.4. The test compounds were dissolved in the vehicle, to stock concentrations of […], then diluted 50- to 200-fold in the vehicle to achieve the desired dosing solution concentrations. Animals were dosed subcutaneously once daily in the morning for each day of treatment with dosing solution at a volume of 2-5 μL per gram of body weight as necessary to achieve the desired dose (e.g. 0.3 nmol/kg, 1.0 nmol/kg, or 3.0 nmol/kg).
On the day of the glucose tolerance test, animals were fasted for 4 h. Food was removed and animals were transferred to fresh cages. Animals had access to water but not to food. Tail blood glucose levels were measured, and mice were injected (t=0) with an intraperitoneal (i.p.) glucose load of 2 g/kg (200 mg/ml glucose solution, dose volume 10 ml/kg). Tail blood glucose levels were measured at times 0, 15, 30, 60, 90, 120 minutes following the i.p. glucose load. Stratification of the animals during the IPGTT was such that for example two mice from group 1 are dosed followed by two mice from group 2, 3, 4, before the next two mice from group 1, 2, 3 etc. were handled. This was to allow for equal distribution of “time of day” throughout all groups.

[2] = Pharmacokinetic study in minipigs, i.v. administration; set-up: species or system Göttingen minipigs; conditions: female, Göttingen, minipig, in vivo, iv; minipigs, i.v. administration, harmonic mean; read-out: Terminal half-life t1/2 (converted)
Procedure, shortened: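 Terminal half-life, reported as harmonic mean, came from non-compartmental fits of plasma levels measured by antibody assay or LCMS over up to 14 days. Dosing was i.v., typically 1.5-2 nmol/kg, through implanted caval catheters in fasted female Göttingen minipigs of 16-35 kg.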

[3] = biological target: T1, human GLP-1 receptor (Homo sapiens, UniProt P43220); test: In vitro functional potency (CRE luciferase; whole cells), human GLP-1R; format: cell-based
T1 construct: expressed in transfected cells; host or cells: BHK cells (parent line BHKTS13) containing CRE luciferase

[4] = Pharmacodynamic study in DIO mice, daily s.c. dosing over 13 days (body weight, food intake); format: in vivo, C57BL/6J male mice; conditions: for Absolute BW (grams) Day 0: Day 0 (baseline); for Cumulative food intake (grams) Day 13: mean ± SEM, n = 2; for reduction in body weight (in words) / reduction in food intake (in words): daily s.c. dosing over 13 days, compared to vehicle
Procedure: as §1, §2, §3
as §4, with “The” for “DIO mice were distributed into groups (n=8 per group) such that statistical variations in the mean and standard deviations of fat mass and body weight were minimized between groups. The”
Body weight (BW) and food intake were measured immediately prior to dosing each day. The percent change in body was calculated individually for each mouse based on initial body weight prior to the first injection.

T1 sequence (P43220 24-463): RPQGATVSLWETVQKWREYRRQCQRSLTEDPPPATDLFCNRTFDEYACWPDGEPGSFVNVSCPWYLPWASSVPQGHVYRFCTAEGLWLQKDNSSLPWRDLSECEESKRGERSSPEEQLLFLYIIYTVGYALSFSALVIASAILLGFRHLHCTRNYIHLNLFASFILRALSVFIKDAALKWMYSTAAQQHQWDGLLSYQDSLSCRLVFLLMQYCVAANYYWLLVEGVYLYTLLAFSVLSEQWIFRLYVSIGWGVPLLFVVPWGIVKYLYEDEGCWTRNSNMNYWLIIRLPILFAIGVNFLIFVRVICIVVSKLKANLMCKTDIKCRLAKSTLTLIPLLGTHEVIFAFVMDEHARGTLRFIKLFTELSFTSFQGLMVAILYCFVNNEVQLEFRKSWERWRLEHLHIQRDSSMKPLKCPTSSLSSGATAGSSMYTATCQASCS

SMILES	iAUC, IPGTT (min*mg/dL) Day 14 ([1]; 1.0 nmol/kg s.c. once daily)	half-life [2]	EC50 [3]	Absolute BW (grams) Day 0 ([4]; 1.0 nmol/kg group)	Absolute BW (grams) Day 13 ([4]; 1.0 nmol/kg s.c. once daily)	Change in BW (%) Day 13 ([4]; 1.0 nmol/kg s.c. once daily)	Cumulative food intake (grams) Day 13 ([4]; 1.0 nmol/kg s.c. once daily)	reduction in body weight (in words) [4]	reduction in food intake (in words) [4]	iAUC, IPGTT (min*mg/dL) Day 14 ([1]; 0.3 nmol/kg s.c. once daily)	glucose tolerance compared to vehicle (in words) ([1]; 1.0 nmol/kg and 3.0 nmol/kg doses)	iAUC, IPGTT (min*mg/dL) Day 14 ([1]; 3.0 nmol/kg s.c. once daily)	Absolute BW (grams) Day 0 ([4]; 0.3 nmol/kg group)	Absolute BW (grams) Day 13 ([4]; 0.3 nmol/kg s.c. once daily)	Change in BW (%) Day 13 ([4]; 0.3 nmol/kg s.c. once daily)	Cumulative food intake (grams) Day 13 ([4]; 0.3 nmol/kg s.c. once daily)	Absolute BW (grams) Day 0 ([4]; 3.0 nmol/kg group)	Absolute BW (grams) Day 13 ([4]; 3.0 nmol/kg s.c. once daily)	Change in BW (%) Day 13 ([4]; 3.0 nmol/kg s.c. once daily)	Cumulative food intake (grams) Day 13 ([4]; 3.0 nmol/kg s.c. once daily)
CC(C)C[C@H](NC(=O)[C@H](CC(C)C)NC(=O)[C@H](Cc1c[nH]c2ccccc12)NC(=O)[C@H](CCC(N)=O)NC(=O)[C@@H](NC(=O)[C@H](Cc1ccccc1)NC(=O)[C@H](CCC(=O)O)NC(=O)C(C)(C)NC(=O)[C@H](C)NC(=O)[C@H](C)NC(=O)[C@H](CCC(N)=O)NC(=O)[C@H](CCCCNC(=O)[C@@H](N)CCCCNC(=O)[C@@H](N)CCCCNC(=O)CC[C@H](NC(=O)CCCCCCCCCCCCCCCCCCC(=O)O)C(=O)O)NC(=O)[C@H](CCC(=O)O)NC(=O)[C@H](CC(C)C)NC(=O)[C@H](Cc1ccc(O)cc1)NC(=O)[C@H](Cc1ccc(O)cc1)NC(=O)[C@H](CO)NC(=O)[C@H](Cc1ccc(O)cc1)NC(=O)[C@H](CC(=O)O)NC(=O)[C@H](CO)NC(=O)[C@@H](NC(=O)[C@H](Cc1ccccc1)NC(=O)[C@@H](NC(=O)CNC(=O)[C@H](Cc1c[nH]cn1)NC(=O)C(C)(C)NC(=O)[C@@H](N)Cc1c[nH]cn1)[C@@H](C)O)[C@@H](C)O)C(C)C)C(=O)N[C@@H](CCC(=O)O)C(=O)NCC(=O)NCC(=O)N1CCC[C@H]1C(=O)N[C@@H](CO)C(=O)N[C@@H](CO)C(=O)NCC(=O)N[C@@H](C)C(=O)N1CCC[C@H]1C(=O)N1CCC[C@H]1C(=O)N1CCC[C@H]1C(=O)N[C@@H](CO)C(N)=O [Compound No. 26] (H-H[Aib]HGTFTSDYSYYLEK([εLys-εLys-γGlu-C20 diacid])QAA[Aib]EFVQWLLEGGPSSGAPPPS-NH2; N-terminus assumed)	8789 ± 1521 mg·min/dL	80 h	3.1 pM	60.7 ± 1.9 grams	51.6 ± 2.2 grams	−15.6 ± 0.9%	20.1 ± 3.4 grams	superior reduction	superior reduction	–	–	–	–	–	–	–	–	–	–	–
CC[C@H](C)[C@H](NC(=O)[C@H](CO)NC(=O)[C@H](Cc1ccc(O)cc1)NC(=O)[C@H](CC(=O)O)NC(=O)[C@H](CO)NC(=O)[C@@H](NC(=O)[C@H](Cc1ccccc1)NC(=O)[C@@H](NC(=O)CNC(=O)[C@H](Cc1c[nH]cn1)NC(=O)C(C)(C)NC(=O)[C@@H](N)Cc1c[nH]cn1)[C@@H](C)O)[C@@H](C)O)C(=O)N[C@@H](Cc1ccc(O)cc1)C(=O)N[C@@H](CC(C)C)C(=O)N[C@@H](CCC(=O)O)C(=O)N[C@@H](CCCCNC(=O)COCCOCCNC(=O)COCCOCCNC(=O)CC[C@H](NC(=O)CCCCCCCCCCCCCCCCCCC(=O)O)C(=O)O)C(=O)N[C@@H](CCC(N)=O)C(=O)N[C@@H](C)C(=O)N[C@@H](C)C(=O)NC(C)(C)C(=O)N[C@@H](CCC(=O)O)C(=O)N[C@@H](Cc1ccccc1)C(=O)N[C@H](C(=O)N[C@@H](CCC(N)=O)C(=O)N[C@@H](Cc1c[nH]c2ccccc12)C(=O)N[C@@H](CC(C)C)C(=O)N[C@@H](CC(C)C)C(=O)N[C@@H](CCC(=O)O)C(=O)NCC(=O)NCC(=O)N1CCC[C@H]1C(=O)N[C@@H](CO)C(=O)N[C@@H](CO)C(=O)NCC(=O)N[C@@H](C)C(=O)N1CCC[C@H]1C(=O)N1CCC[C@H]1C(=O)N1CCC[C@H]1C(=O)N[C@@H](CO)C(N)=O)C(C)C [Compound No. 44] (H-H[Aib]HGTFTSDYSIYLEK([AEEA-AEEA-γGlu-C20 diacid])QAA[Aib]EFVQWLLEGGPSSGAPPPS-NH2; N-terminus assumed)	14606 ± 2410 mg·min/dL	–	1.8 pM	60.8 ± 1.1 grams	52.7 ± 1.3 grams	−13.4 ± 0.9%	24.8 ± 1.8 grams	superior reduction; also recorded: dose-dependent effect	superior reduction; also recorded: dose-dependent effect	25356 ± 4338 mg·min/dL	improved glucose tolerance	15161 ± 2257 mg·min/dL	59.2 ± 1.2 grams	56.9 ± 1.5 grams	−3.9 ± 1.1%	28.0 ± 0.6 grams	60.6 ± 1.1 grams	43.1 ± 1.8 grams	−29.1 ± 2.3%	12.4 ± 1.5 grams

Source: patent US20230391845A1, “GLP-1, GIP AND GLUCAGON RECEPTOR TRIPLE AGONISTS” (priority 2020, published 2023)
